Measured values published in the NIST ThermoML archive (doi:10.1021/acs.jced.7b00819).
Numbers after ± are expanded uncertainties.

Assays:
[1] = Crystal; DTA
[2] = Molar enthalpy of transition or fusion; conditions: Crystal; DSC

Row | Structure (SMILES) | Normal melting temperature [1] | Molar enthalpy of transition or fusion [2]
1 | CCOC(=O)C1=NN(c2ccc(Cl)cc2Cl)C(C)(C(=O)OCC)C1 (centres undefined) | 49.2 ± 0.7 °C | 4.4 ± 0.239 kcal/mol
2 | CCOC(=O)C1=NN(c2ccc(Cl)cc2Cl)[C@](C)(C(=O)OCC)C1 | 30.5 ± 0.7 °C | 5.88 ± 0.263 kcal/mol
